Source: publication PMC9653409, “Generative deep learning enables the discovery of a potent and selective RIPK1 inhibitor” (Nature Communications, 2022)
Where two headings read alike, the source gives them in different places.

What was measured:
Assay in all cases: Kinase inhibitory activity profiling of RI-962@10 µM (406 kinases, Eurofins)
Type in all cases: biochemical
[1] = molecular target: panel of human kinases (kinase named in endpoint) (Homo sapiens, UniProt P15056, V600E); settings: 10 µM; read-out: Activity (%), B-Raf(V599E)(h)
In short: (§1)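 Radiometric filter-binding kinase assays: enzyme preincubated 15 min with compound in 8 mM MOPS pH 7.0, 0.2 mM EDTA, 250 μM peptide substrate, 10 mM magnesium acetate, 10 μM [γ-33P]-ATP. Reaction started with Mg/ATP, run 40 min at room temperature, stopped with phosphoric acid; 33P incorporation read by scintillation counting. Other kinases by similar protocols.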

[2] = molecular target: panel of human kinases (kinase named in endpoint) (Homo sapiens, UniProt Q06187); settings: 10 µM; read-out: Activity (%), BTK(h)
In short: as §1

[3] = molecular target: panel of human kinases (kinase named in endpoint) (Homo sapiens, UniProt O60285); settings: 10 µM; read-out: Activity (%), ARK5(h)
In short: as §1

[4] = molecular target: panel of human kinases (kinase named in endpoint) (Homo sapiens, UniProt P48736); settings: 10 µM; read-out: Activity (%), PI3 Kinase (p120g)(h)
In short: as §1

[5] = molecular target: panel of human kinases (kinase named in endpoint) (Homo sapiens, UniProt Q08345); settings: 10 µM; read-out: Activity (%), DDR1(h)
In short: as §1

[6] = molecular target: panel of human kinases (kinase named in endpoint) (Homo sapiens, UniProt Q14289); settings: 10 µM; read-out: Activity (%), Pyk2(h)
In short: as §1

[7] = molecular target: panel of human kinases (kinase named in endpoint) (Homo sapiens, UniProt Q02763, R849W); settings: 10 µM; read-out: Activity (%), Tie2(R849W)(h)
In short: as §1

[8] = molecular target: panel of human kinases (kinase named in endpoint) (Homo sapiens, UniProt P49760); settings: 10 µM; read-out: Activity (%), CLK2(h)
In short: as §1

[9] = molecular target: panel of human kinases (kinase named in endpoint) (Homo sapiens, UniProt Q8NE63); settings: 10 µM; read-out: Activity (%), HIPK4(h)
In short: as §1

[10] = molecular target: panel of human kinases (kinase named in endpoint) (Homo sapiens, UniProt O75582); settings: 10 µM; read-out: Activity (%), MSK1(h)
In short: as §1

[11] = molecular target: panel of human kinases (kinase named in endpoint) (Homo sapiens, UniProt P42684); settings: 10 µM; read-out: Activity (%), Arg(h)
In short: as §1

[12] = molecular target: panel of human kinases (kinase named in endpoint) (Homo sapiens, UniProt P11802); settings: 10 µM; read-out: Activity (%), CDK4/cyclinD3(h)
In short: as §1

[13] = molecular target: panel of human kinases (kinase named in endpoint) (Homo sapiens, UniProt Q9BXA7); settings: 10 µM; read-out: Activity (%), TSSK1(h)
In short: as §1

[14] = molecular target: panel of human kinases (kinase named in endpoint) (Homo sapiens, UniProt O43293); settings: 10 µM; read-out: Activity (%), ZIPK(h)
In short: as §1

[15] = molecular target: panel of human kinases (kinase named in endpoint) (Homo sapiens, UniProt P08581, Y1230H); settings: 10 µM; read-out: Activity (%), Met(Y1248H)(h)
In short: as §1

[16] = molecular target: panel of human kinases (kinase named in endpoint) (Homo sapiens, UniProt Q05397); settings: 10 µM; read-out: Activity (%), FAK(h)
In short: as §1

[17] = molecular target: panel of human kinases (kinase named in endpoint) (Homo sapiens, UniProt Q9NQU5); settings: 10 µM; read-out: Activity (%), PAK6(h)
In short: as §1

[18] = molecular target: panel of human kinases (kinase named in endpoint) (Homo sapiens, UniProt P54760); settings: 10 µM; read-out: Activity (%), EphB4(h)
In short: as §1

[19] = molecular target: panel of human kinases (kinase named in endpoint) (Homo sapiens, UniProt Q9HCP0); settings: 10 µM; read-out: Activity (%), CK1γ1(h)
In short: as §1

[20] = molecular target: panel of human kinases (kinase named in endpoint) (Homo sapiens, UniProt P08631); settings: 10 µM
In short: as §1

[21] = molecular target: panel of human kinases (kinase named in endpoint) (Homo sapiens, UniProt P00519, Q252H); settings: 10 µM; read-out: Activity (%), Abl (Q252H) (h)
In short: as §1

[22] = molecular target: panel of human kinases (kinase named in endpoint) (Homo sapiens, UniProt O96013); settings: 10 µM; read-out: Activity (%), PAK4(h)
In short: as §1

[23] = molecular target: panel of human kinases (kinase named in endpoint) (Homo sapiens, UniProt P22455); settings: 10 µM; read-out: Activity (%), FGFR4(h)
In short: as §1

[24] = molecular target: panel of human kinases (kinase named in endpoint) (Homo sapiens, UniProt Q14012); settings: 10 µM; read-out: Activity (%), CaMKI(h)
In short: as §1

[25] = molecular target: panel of human kinases (kinase named in endpoint) (Homo sapiens, UniProt P11309); settings: 10 µM; read-out: Activity (%), Pim-1(h)
In short: as §1

panel of human kinases (kinase named in endpoint) (Homo sapiens, UniProt P08631), sequence (P08631 whole entry): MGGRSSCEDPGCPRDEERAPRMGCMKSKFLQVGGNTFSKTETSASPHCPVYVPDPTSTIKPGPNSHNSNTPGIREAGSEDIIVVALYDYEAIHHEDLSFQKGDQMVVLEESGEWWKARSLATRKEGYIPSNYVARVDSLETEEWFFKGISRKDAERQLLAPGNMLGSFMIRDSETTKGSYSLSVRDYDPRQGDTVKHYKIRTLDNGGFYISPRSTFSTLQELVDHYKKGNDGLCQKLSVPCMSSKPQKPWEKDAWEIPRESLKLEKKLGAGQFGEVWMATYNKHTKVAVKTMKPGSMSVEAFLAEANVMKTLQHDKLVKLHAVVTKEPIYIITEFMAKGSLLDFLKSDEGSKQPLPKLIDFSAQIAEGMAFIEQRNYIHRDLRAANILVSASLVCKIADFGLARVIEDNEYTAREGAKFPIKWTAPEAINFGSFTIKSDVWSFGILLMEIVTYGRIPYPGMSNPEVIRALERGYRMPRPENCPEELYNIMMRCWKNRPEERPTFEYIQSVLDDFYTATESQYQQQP
panel of human kinases (kinase named in endpoint) (Homo sapiens, UniProt P48736), sequence (P48736 whole entry): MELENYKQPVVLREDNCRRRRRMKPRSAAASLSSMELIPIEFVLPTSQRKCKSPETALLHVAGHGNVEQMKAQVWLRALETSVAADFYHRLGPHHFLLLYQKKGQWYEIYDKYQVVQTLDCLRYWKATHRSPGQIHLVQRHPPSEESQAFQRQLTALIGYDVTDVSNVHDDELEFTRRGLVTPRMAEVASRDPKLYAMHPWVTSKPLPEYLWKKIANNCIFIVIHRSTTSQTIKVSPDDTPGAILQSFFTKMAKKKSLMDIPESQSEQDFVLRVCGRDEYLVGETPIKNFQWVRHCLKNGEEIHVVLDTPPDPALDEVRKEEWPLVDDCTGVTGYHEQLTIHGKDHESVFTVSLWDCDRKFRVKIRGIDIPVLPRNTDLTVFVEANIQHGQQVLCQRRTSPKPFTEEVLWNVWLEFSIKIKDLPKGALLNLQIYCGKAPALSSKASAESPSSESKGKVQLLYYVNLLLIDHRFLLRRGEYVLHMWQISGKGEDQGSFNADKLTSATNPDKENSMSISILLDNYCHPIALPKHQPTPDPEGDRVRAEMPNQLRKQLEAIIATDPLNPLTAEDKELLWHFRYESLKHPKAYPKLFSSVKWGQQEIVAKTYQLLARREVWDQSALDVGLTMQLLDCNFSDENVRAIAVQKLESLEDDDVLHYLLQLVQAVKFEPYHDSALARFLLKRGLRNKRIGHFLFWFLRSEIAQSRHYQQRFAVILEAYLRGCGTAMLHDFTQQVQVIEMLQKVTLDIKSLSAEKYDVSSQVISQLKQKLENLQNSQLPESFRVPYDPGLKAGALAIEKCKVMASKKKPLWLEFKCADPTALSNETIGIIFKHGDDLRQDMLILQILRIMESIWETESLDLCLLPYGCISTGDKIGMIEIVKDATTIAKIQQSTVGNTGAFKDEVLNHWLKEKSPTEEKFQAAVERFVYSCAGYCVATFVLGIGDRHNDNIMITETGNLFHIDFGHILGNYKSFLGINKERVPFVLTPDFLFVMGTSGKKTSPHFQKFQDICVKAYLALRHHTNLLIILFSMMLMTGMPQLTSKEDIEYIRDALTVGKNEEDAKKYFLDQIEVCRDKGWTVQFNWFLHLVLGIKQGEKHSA
panel of human kinases (kinase named in endpoint) (Homo sapiens, UniProt P54760), sequence (P54760 16-987): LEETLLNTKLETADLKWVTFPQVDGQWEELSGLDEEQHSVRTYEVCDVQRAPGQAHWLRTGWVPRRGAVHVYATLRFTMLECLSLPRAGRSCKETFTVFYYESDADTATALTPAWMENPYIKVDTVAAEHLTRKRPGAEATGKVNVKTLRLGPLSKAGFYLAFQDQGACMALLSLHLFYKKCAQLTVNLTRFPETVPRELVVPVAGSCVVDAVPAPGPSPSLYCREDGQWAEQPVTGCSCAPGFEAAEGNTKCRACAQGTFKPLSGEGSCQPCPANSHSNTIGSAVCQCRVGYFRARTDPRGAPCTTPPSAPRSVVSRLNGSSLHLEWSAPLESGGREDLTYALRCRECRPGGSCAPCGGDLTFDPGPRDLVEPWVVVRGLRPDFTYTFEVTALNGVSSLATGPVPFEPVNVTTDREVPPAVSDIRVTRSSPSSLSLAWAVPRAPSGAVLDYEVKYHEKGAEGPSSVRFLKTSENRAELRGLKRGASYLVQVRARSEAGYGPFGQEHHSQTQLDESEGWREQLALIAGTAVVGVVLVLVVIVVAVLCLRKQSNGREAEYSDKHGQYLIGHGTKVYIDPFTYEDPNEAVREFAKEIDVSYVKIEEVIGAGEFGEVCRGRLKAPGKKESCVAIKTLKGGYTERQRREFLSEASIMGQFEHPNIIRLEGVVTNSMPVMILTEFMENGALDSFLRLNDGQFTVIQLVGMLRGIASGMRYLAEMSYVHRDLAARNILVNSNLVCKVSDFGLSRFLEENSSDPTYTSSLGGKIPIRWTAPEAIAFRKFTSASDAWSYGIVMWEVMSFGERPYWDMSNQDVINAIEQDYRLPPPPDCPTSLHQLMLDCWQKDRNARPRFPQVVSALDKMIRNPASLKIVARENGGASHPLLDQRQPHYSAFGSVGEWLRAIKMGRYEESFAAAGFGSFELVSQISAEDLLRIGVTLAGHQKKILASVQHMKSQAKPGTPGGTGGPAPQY
panel of human kinases (kinase named in endpoint) (Homo sapiens, UniProt O75582), sequence (O75582 whole entry): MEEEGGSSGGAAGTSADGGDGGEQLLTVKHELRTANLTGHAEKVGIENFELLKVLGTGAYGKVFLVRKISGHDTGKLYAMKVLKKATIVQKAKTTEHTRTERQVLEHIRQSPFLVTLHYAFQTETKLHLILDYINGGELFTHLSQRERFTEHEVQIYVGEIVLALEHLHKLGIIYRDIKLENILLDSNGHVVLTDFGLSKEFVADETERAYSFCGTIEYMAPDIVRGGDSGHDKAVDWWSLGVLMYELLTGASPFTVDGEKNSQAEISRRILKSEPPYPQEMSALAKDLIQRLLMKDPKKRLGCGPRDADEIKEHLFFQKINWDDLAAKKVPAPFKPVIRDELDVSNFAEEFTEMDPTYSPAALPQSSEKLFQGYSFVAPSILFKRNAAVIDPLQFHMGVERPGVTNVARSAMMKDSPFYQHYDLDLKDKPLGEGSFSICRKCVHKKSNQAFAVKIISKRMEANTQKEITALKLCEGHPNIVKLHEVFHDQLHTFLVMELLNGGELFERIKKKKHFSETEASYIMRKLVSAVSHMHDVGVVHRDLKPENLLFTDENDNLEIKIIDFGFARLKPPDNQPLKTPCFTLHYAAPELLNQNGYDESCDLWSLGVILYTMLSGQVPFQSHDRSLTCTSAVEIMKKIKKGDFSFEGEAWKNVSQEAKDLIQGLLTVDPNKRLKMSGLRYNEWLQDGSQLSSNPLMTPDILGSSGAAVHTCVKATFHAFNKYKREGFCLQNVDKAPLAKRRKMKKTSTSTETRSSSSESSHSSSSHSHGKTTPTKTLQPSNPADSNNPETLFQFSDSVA
panel of human kinases (kinase named in endpoint) (Homo sapiens, UniProt O96013), sequence (O96013 whole entry): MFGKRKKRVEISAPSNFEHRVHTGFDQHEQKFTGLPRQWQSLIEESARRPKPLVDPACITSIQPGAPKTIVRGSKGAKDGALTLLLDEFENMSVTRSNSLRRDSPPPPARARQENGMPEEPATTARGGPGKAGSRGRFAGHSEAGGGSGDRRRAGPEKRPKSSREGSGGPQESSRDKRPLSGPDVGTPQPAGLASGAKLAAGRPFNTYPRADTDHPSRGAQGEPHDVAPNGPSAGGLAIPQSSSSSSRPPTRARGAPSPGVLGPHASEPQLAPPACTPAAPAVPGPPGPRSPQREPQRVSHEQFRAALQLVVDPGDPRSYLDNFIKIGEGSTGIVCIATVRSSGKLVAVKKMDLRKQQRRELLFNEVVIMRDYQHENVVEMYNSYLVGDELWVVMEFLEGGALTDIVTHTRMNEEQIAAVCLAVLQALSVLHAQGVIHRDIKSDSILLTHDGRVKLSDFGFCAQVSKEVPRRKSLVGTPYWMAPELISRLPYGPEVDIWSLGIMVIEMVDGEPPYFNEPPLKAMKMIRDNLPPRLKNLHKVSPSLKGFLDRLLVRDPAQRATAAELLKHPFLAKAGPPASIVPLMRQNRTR
panel of human kinases (kinase named in endpoint) (Homo sapiens, UniProt Q9BXA7), sequence (Q9BXA7 whole entry): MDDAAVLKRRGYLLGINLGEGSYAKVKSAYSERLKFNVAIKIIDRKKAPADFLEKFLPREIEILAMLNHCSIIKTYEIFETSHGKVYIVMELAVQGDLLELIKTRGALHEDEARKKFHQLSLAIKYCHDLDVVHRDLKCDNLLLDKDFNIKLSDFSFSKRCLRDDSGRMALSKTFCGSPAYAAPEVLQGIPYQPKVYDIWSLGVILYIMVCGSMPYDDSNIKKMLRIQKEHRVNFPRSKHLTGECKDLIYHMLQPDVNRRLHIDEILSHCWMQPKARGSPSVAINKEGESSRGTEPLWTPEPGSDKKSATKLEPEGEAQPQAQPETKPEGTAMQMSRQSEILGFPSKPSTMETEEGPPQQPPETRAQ
panel of human kinases (kinase named in endpoint) (Homo sapiens, UniProt Q14012), sequence (Q14012 whole entry): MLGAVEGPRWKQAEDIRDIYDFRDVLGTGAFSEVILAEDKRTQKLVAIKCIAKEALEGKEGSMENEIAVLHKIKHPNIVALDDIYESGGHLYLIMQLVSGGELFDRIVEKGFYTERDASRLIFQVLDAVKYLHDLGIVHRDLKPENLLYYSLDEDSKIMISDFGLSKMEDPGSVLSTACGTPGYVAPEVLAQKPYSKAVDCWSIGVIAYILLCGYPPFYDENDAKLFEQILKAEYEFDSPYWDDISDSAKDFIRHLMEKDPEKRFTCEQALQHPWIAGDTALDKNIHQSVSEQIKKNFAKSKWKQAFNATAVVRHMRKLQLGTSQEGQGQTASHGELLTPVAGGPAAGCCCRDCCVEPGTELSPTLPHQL
panel of human kinases (kinase named in endpoint) (Homo sapiens, UniProt P11802), sequence (P11802 whole entry): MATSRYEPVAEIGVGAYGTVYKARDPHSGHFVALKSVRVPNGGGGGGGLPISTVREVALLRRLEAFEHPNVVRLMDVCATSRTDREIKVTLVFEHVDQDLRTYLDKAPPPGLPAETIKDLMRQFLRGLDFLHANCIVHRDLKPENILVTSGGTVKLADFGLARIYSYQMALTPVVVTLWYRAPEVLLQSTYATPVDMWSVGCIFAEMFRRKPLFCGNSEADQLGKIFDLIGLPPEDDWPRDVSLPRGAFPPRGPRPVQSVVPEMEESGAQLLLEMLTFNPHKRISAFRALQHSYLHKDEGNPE

CC(C)C(=O)Nc1nc2cc(-c3ccc4c(c3)c(C(=O)NC(C)c3ccccc3)cn4C)ccn2n1 (centres unmarked) [RI-962]
activity at 10 µM [1]: 107% | activity at 10 µM [2]: 92% | activity at 10 µM [3]: 83% | activity at 10 µM [4]: 80% | activity at 10 µM [5]: 104% | activity at 10 µM [6]: 106% | activity at 10 µM [7]: 109% | activity at 10 µM [8]: 94% | activity at 10 µM [9]: 71% | activity at 10 µM [10]: 112% | activity at 10 µM [11]: 106% | activity at 10 µM [12]: 75% | activity at 10 µM [13]: 84% | activity at 10 µM [14]: 102% | activity at 10 µM [15]: 99% | activity at 10 µM [16]: 108% | activity at 10 µM [17]: 87% | activity at 10 µM [18]: 90% | activity at 10 µM [19]: 94% | activity at 10 µM ([20]; read-out: Activity (%), Hck(h)): 93% | activity at 10 µM ([20]; read-out: Activity (%), Hck(h) activated): 97% | activity at 10 µM [21]: 135% | activity at 10 µM [22]: 92% | activity at 10 µM [23]: 85% | activity at 10 µM [24]: 92% | activity at 10 µM [25]: 101%
